Here are results for 3 compounds from article PMC7279231 (International Journal of Molecular Sciences, 2020).

Where two headings read alike, the source gives them in different places.

Data set [1] concerns HepG2 cells. The experiment in a line: MTT assay (mitochondrial activity), HepG2. It counts as cell-based, human. As for the experimental part: (§1) The human hepatoma cell line (HepG2) was purchased from the American Type Culture Collection (ATCC HB-8065). These cells were cultured in Minimum Essential Medium Eagle (MEME) (ATCC). The murine fibroblast cell line (Balb/c 3T3 clone A31) was purchased from the American Type Culture Collection (ATCC CCL-163), and the cells were cultured in Dulbecco’s Modified Eagle’s Medium (DMEM) (ATCC). The media were supplemented with 10% BCS (Balb/c 3T3), 10% FBS (HepG2), 1% L-glutamine, and 1% antibiotic solution. The cells were maintained in 75-cm^2 cell culture flasks (NUNC, Roskilde, Denmark) in a humidified incubator, NuAire (Plymouth, MN, USA) at 37 °C and 5% CO2. The medium was refreshed every two days and the cells were trypsinized by 0.25% trypsin–0.02% EDTA after reaching 70–80% confluence. Then, cell suspensions at a density of 2 × 10^5 cells/mL (HepG2) and 5 × 10^4 cells/mL (Balb/c 3T3) were transferred to 96-well plates (100 μL/well) and incubated for 24 h before the exposure to the studied compounds.
(§2) As a control, cultured cells were grown in the absence of the studied compounds. Each concentration was tested in six replicates in three independent experiments. Cytotoxicity was assessed after 72 h of cell exposure to the compounds in darkness. The medium was not changed during the incubation time.
(§3) MTT assay. The metabolic activity of living cells was assessed by the measurement of the activity of dehydrogenases. After incubation of the cells with the study compound, 10 μL of the MTT solution (5 mg/mL in phosphate buffered saline (PBS)) was added to each well of the 96-well plate and incubated. After 3 h, the MTT solution was removed, and intracellular formazan crystals were dissolved in 100 μL DMSO. The plate was shaken for 15 min at room temperature and transferred to a microplate reader (Synergy HTX multi-mode reader (BioTek® Instruments Inc., Winooski, VT, USA)) to measure the absorbance at 570 nm, using a blank as a reference. Cytotoxicity was expressed as a percentage of the negative control (0.1% DMSO).
(§4) The study was performed in three independent experiments. […] Assessment of the cytotoxicity data used a one-way analysis of variance (ANOVA) followed by Dunnett’s post-hoc test, which was applied to determine significance relative to the negative control. The cytotoxicity concentration (IC20 and IC50) necessary for 20% and 50% inhibition of cell viability, respectively, by the drug was calculated using GraphPad Prism 5.0. Statistical comparisons among IC50 values were performed by the analysis of variance (ANOVA) followed by the Tukey test, and differences were considered statistically significant at p ≤ 0.05.

Data set [2] concerns HepG2 cells. The experiment in a line: NRU assay (lysosomal activity), HepG2. It counts as cell-based, human. How it is done:
as §1, §2
(§5) NRU assay. This method is based on staining living cells with neutral red which readily diffuses through the plasma membrane and accumulates in lysosomes. After the incubation, the medium containing the drug was removed, and the cells were washed with PBS. Then, 100 μL/well of NR solution (50 μg/mL) was added for 3 h. After this time, the cells were washed with PBS. The dye from viable cells was released by extraction with a mixture of acetic acid, ethanol, and water (1:50:49, v:v:v). After 10 min of shaking, the absorbance of the dissolved NR was measured using a Synergy HTX multi-mode reader (BioTek® Instruments Inc., Winooski, VT, USA) at 540 nm using a blank as a reference. Cytotoxicity was expressed as a percentage of the negative control (0.1% DMSO).
as §4

Data set [3] concerns HepG2 cells. The experiment in a line: TPC assay (total protein content), HepG2. The data set is classed as cell-based, human. How it is done:
as §1, §2
(§6) TPC assay. The assay was based upon staining total cellular protein (proliferation). After the incubation, the medium containing drug was removed and 100 μL of Coomassie brilliant blue R-250 dye was added to each well. The plate was shaken for 10 min. Then, the stain was removed and the cells were rinsed twice with 100 μL of washing solution (glacial acetic acid/ethanol/water, 5:10:85, v:v:v). After that, 100 μL of the desorbing solution (1 M potassium acetate) was added, and plates were shaken again for 10 min. The absorbance was measured at 595 nm in a microplate reader (Synergy HTX multi-mode reader (BioTek® Instruments Inc., Winooski, VT, USA)) using a blank as a reference. Cytotoxicity was expressed as a percentage of the negative control (0.1% DMSO).
as §4

Data set [4] deals with HepG2 cells. The experiment in a line: LDH leakage assay (cellular membrane integrity), HepG2. It counts as cell-based, human. As for the experimental part: as §1, §2
LDH leakage assay. The integrity of the plasma membrane was assessed through the test of lactate dehydrogenase (LDH) release, which was monitored using the commercially available Cytotoxicity Detection Kit (LDH) (Roche Diagnostics, Warsaw, Poland). The medium (100 μL/well) without cells was transferred into the corresponding wells of an optically clear 96-well flat-bottom microplate, and 100 μL of reaction mixture was added to each well. Then, the plates were incubated for 30 min at room temperature in darkness. After that time, 50 μL/well of 1 M HCl was added to stop the reaction. The absorbance was measured at 492 nm in a microplate reader (Synergy HTX multi-mode reader (BioTek® Instruments Inc., Winooski, VT, USA)) using a blank as a reference. […]
(Release of lactate dehydrogenase indicates damage to the cell membrane.)

Data set [5] relates to Balb/c 3T3 fibroblasts. The data set can be described thus: MTT assay (mitochondrial activity), Balb/c 3T3. It counts as cell-based, murine. How it is done:
as §1, §2, §3, §4
(Formazan colour is commonly taken as a measure of viable cells.)

Data set [6] has as its system Balb/c 3T3 fibroblasts. The experiment in a line: NRU assay (lysosomal activity), Balb/c 3T3. It counts as cell-based, murine. How it is done:
as §1, §2, §5, §4

Data set [7] relates to Balb/c 3T3 fibroblasts. The experiment in a line: TPC assay (total protein content), Balb/c 3T3. The data set is classed as cell-based, murine. How it is done: as §1, §2, §6, §4
Data set [8] relates to Balb/c 3T3 fibroblasts. The experiment in a line: LDH leakage assay (cellular membrane integrity), Balb/c 3T3. It counts as cell-based, murine. As for the experimental part: as §1, §2
LDH leakage assay. The integrity of the plasma membrane was assessed through the test of lactate dehydrogenase (LDH) release, which was monitored using the commercially available Cytotoxicity Detection Kit (LDH) (Roche Diagnostics, Warsaw, Poland). The medium (100 μL/well) without cells was transferred into the corresponding wells of an optically clear 96-well flat-bottom microplate, and 100 μL of reaction mixture was added to each well. Then, the plates were incubated for 30 min at room temperature in darkness. After that time, 50 μL/well of 1 M HCl was added to stop the reaction. The absorbance was measured at 492 nm in a microplate reader (Synergy HTX multi-mode reader (BioTek® Instruments Inc., Winooski, VT, USA)) using a blank as a reference.
as §4

For data set [9], the system named is HepG2 cells. The data set can be described thus: Cytotoxicity over the MTT, NRU, TPC and LDH assays, HepG2. The data set is classed as cell-based, human. The conditions noted are these: HepG2, up to 1 μM, Figure S5. How it is done: as §1, with “The medium was refreshed every two days and the cells were trypsinized by 0.25% trypsin–0.02% EDTA after reaching 70–80% confluence. Then, cell suspensions at a density of 2 × 10^5 cells/mL (HepG2) and 5 × 10^4 cells/mL (Balb/c 3T3) were transferred to 96-well plates (100 μL/well) and incubated for 24 h before the exposure to the studied compounds.” left out
(§7) As a control, cultured cells were grown in the absence of the studied compounds. […] Cytotoxicity was assessed after 72 h of cell exposure to the compounds in darkness. […]
(§8) MTT assay. The metabolic activity of living cells was assessed by the measurement of the activity of dehydrogenases. […] The plate was shaken for 15 min at room temperature and transferred to a microplate reader (Synergy HTX multi-mode reader (BioTek® Instruments Inc., Winooski, VT, USA)) to measure the absorbance at 570 nm, using a blank as a reference. Cytotoxicity was expressed as a percentage of the negative control (0.1% DMSO).
(§9) NRU assay. […] Cytotoxicity was expressed as a percentage of the negative control (0.1% DMSO). […]

Data set [10] has as its system Balb/c 3T3 fibroblasts. The data set can be described thus: Cytotoxicity over the MTT, NRU, TPC and LDH assays, Balb/c 3T3. It counts as cell-based, murine. The following applies: Balb/c 3T3, up to 1 μM, Figure S5. How it is done: as §1, with “The medium was refreshed every two days and the cells were trypsinized by 0.25% trypsin–0.02% EDTA after reaching 70–80% confluence. Then, cell suspensions at a density of 2 × 10^5 cells/mL (HepG2) and 5 × 10^4 cells/mL (Balb/c 3T3) were transferred to 96-well plates (100 μL/well) and incubated for 24 h before the exposure to the studied compounds.” left out
as §7, §8, §9

For data set [11] the following is noted: cited from earlier work.
Data set [12] relates to human cancer cells (breast, bladder, colorectal cancer cell lines, acute myelogenous leukemia, osteosarcoma cells). Also on record: method as in PMID 26286663. The following applies: cited from earlier work.
[13] abbreviates: HepG2, MTT, 72 h exposure, mean (n = 3) ± SD.
The mark [14] stands for this setting: HepG2, NRU, 72 h exposure, mean (n = 3) ± SD.
[15] abbreviates: HepG2, TPC, 72 h exposure, mean (n = 3) ± SD.
The mark [16] stands for this setting: Balb/c 3T3, MTT, 72 h exposure, mean (n = 3) ± SD.
Setting [17] is: Balb/c 3T3, NRU, 72 h exposure, mean (n = 3) ± SD.
The mark [18] stands for this setting: Balb/c 3T3, TPC, 72 h exposure, mean (n = 3) ± SD.
[19] abbreviates: Balb/c 3T3, LDH, 72 h exposure, mean (n = 3) ± SD.

Usually IC20 stands for the point of the concentration-response curve where the effect stands at 20%. For orientation: IC50 means the concentration that inhibits the measured activity by half. With `N.N.[Cl][Pt][Cl]` [Cisplatin, cis-diamminedichloroplatinum(II)], the IC20 in data set [1] (setting [13]) is less than 0.1 nM; in data set [2] (setting [14]), less than 0.1 nM; in data set [3] (setting [15]), less than 0.1 nM; in data set [5] (setting [16]), greater than 1000 nM; in data set [6] (setting [17]), greater than 1000 nM; in data set [7] (setting [18]), greater than 1000 nM. In [8] (setting [19]), the 20% effect concentration (IC20) is greater than 1000 nM. The IC50 in [1] (setting [13]) was greater than 1000 nM; in [2] (setting [14]), greater than 1000 nM; in data set [3] (setting [15]), greater than 1000 nM; in data set [4] (HepG2, LDH, 72 h exposure, mean (n = 3) ± SD) it was 10 ± 1 nM; in data set [5] (setting [16]), greater than 1000 nM; in data set [6] (setting [17]), greater than 1000 nM. Further, the IC50 in [7] (setting [18]) and in data set [8] (setting [19]) was greater than 1000 nM throughout.

On to `Clc1ccc(COC(Cn2ccnc2)c2ccc(Cl)cc2Cl)c(Cl)c1` (stereo not shown) [Miconazole, 1-[2-(2,4-dichlorobenzyloxy)-2-(2,4-dichlorophenyl)ethyl]-1H-imidazole], for which the “toxicity to the cell line (in words)” value in data set [9] and in data set [10] was “not toxic” in each case. Further, the solubility entry in data set [11] (ethanol) is “soluble”; in [11] (methanol), “hardly soluble”; in data set [11] (water), “practically insoluble”. Besides, the “concentration inhibiting the proliferation of human cancer cells” value in data set [12] was no more than 10 µM.

For the compound `O=[N+]([O-])[O-].[Ag+]` [AgNO3, Silver nitrate], the IC20 in [1], in [2], in data set [3], in [4], in [5] and in [6] was greater than 1000 nM throughout. Besides, the IC20 in data set [7] and in data set [8] was greater than 1000 nM each time. The IC50 in [1], in data set [2], in [3], in data set [4], in data set [5] and in data set [6] was greater than 1000 nM each time. Also, the IC50 in data set [7] and in data set [8] was greater than 1000 nM throughout.
